In US20240261268A1, “METHODS OF SLOWING AN INCREASE IN BRAIN VENTRICULAR VOLUME” (VANDA PHARMACEUTICALS INC., priority 2022, published 2024):

Key:
[1] = tested on: adult subjects with relapsing MS; assay: Phase III study ponesimod 20 mg vs teriflunomide 14 mg: treatment-emergent adverse events (Safety Set)
Procedure: A prospective, multicenter, randomized, double-blind, active controlled, parallel-group, phase III, superiority study was conducted.
The treatment period consisted of an up-titration period (from Day 1 to 14) and a maintenance period (Day 15 until EOT).
To reduce the first-dose effect of ponesimod, an up-titration scheme was implemented from Day 1 to Day 14: • Days 1 and 2; 2 mg. • Days 3 and 4; 3 mg. • Days 5 and 6; 4 mg. • Day 7; 5 mg. • Day 8; 6 mg. • Day 9; 7 mg. • Day 10; 8 mg. • Day 11; 9 mg. • Days 12, 13, and 14; 10 mg. • Day 15 until EOT; 20 mg.
The Safety Set (SAF) included all randomized subjects who received at least one dose of study treatment. Subjects were analyzed based on actual treatment taken, not randomized treatment.

[2] = tested on: adult subjects with relapsing MS; assay: Phase III study: premature treatment discontinuation and deaths; assay type: in vivo; conditions: ponesimod 20 mg, teriflunomide 14 mg
Procedure: A total of 1468 subjects were screened. Of those, 1133 subjects were randomized (567 to ponesimod 20 mg and 566 to teriflunomide 14 mg) across 162 sites in 28 countries, and 1131 subjects received at least one dose of study drug. The disposition of subjects is summarized in Table 1 and a summary of reasons (primary reason) for treatment discontinuation are shown in Table 2. Overall treatment and study discontinuation were balanced across both treatment arms. A total of 6.5% and 2.5% of the subjects discontinued due to AEs or tolerability related reasons in ponesimod 20 mg and teriflunomide 14 mg, respectively, while 1.9% and 4.3% discontinued due to efficacy related reasons. There were 2 deaths reported during the study—both on teriflunomide 14 mg.

[3] = tested on: adult subjects with relapsing MS; assay: MRI-based scaled brain ventricular volume (lateral + 3rd ventricle / ICV); assay type: in vivo, human; conditions: p<0.001 vs baseline, ponesimod n=428, teriflunomide n=427
Text: Efficacy variable/timepoint: The endpoint was increase in ventricular volume up to the end of study (EOS). All available data up to EOS, regardless of treatment discontinuation was included (ITT approach).
Ventricular Volume (VV) data were obtained from MRI images from patients that participated in the OPTIMUM study. Data were obtained from those patients who had MRI imagines at baseline week 60 and week 108. One pre-requisite was to select only those patients who had all images completed.
Ventricular volume was estimated from MRI images collected at baseline (BL), week 60 and week 108 for 428 subjects treated with ponesimod and 427 with teriflunomide. Lesions were identified using T2-weighted and Proton Density (PD) MRIs. Ventricles were segmented using lesion-filled T1 images using with the longitudinal stream in FreeSurfer 7. For each subject, scaled ventricular volume (V) was computed as the sum of lateral and 3rd ventricle volumes divided by the intracranial volume (ICV) and expressed as a percentage. Average V (V) and average change in V (ΔV) from baseline at weeks 60 and 108 were compared across treatment arms. Ventricular volumes were correlated with Multiple Sclerosis Functional Composite (MSFC), Paced Auditory Serial Addition Test (PASAT), Average Timed 25 Foot Walk (T25FW), Average 9-Hole Peg Test (9-HPT), Single Digit Modality Test (SDMT), FSIQ-RMS and Expanded Disability Score (EDSS).

[4] = tested on: adult subjects with relapsing MS; assay: 12-lead ECG heart rate and first-dose monitoring on Day 1; assay type: in vivo, human
Procedure: The incidence of treatment-emergent heart rate and rhythm (including hypotension) AESIs on Day 1 was higher in the ponesimod 20 mg arm (2.1%) than in the teriflunomide 14 mg arm (0.4%). However, the overall incidence of first dose AESI on Day 1 was low (2.1%) in ponesimod. None of these events were serious nor led to permanent discontinuation of study treatment. Discharge criteria at 4 hours post-dose were met for ca. 99% of subjects. […] ECG HR effect: nadir at 2 hours post-dose (siponimod—3-4 hours, fingolimod—around by 6 hours). Low incidence of low HR outliers (post-dose HR≤40 bpm), all 3 of them with a pre-treatment HR of <55 bpm, which is a known risk factor for post-dose bradycardia with SIP receptor modulators.
The mean heart rate reduction compared to pre-dose reached a maximum for ponesimod 20 mg at 2-hours post dose, −8.7 bpm compared to −1.7 bpm for teriflunomide 14 mg (FIG. 2).

[5] = Day 1, ponesimod N=565, teriflunomide N=566, Safety Set
[6] = ponesimod 20 mg N=565, teriflunomide 14 mg N=566, Safety Set
[7] = ponesimod 20 mg, teriflunomide 14 mg
[8] = treatment-emergent, ponesimod 20 mg N=565, teriflunomide 14 mg N=566, Safety Set

C/C(O)=C(\C#N)C(=O)Nc1ccc(C(F)(F)F)cc1 [teriflunomide, reference compound]
Incidence of treatment-emergent heart rate and rhythm (including hypotension) AESIs on Day 1 ([1]; Day 1, ponesimod 20 mg arm, teriflunomide 14 mg arm): 0.4%
AESI effect on heart rate and rhythm (including hypotension) on Day 1: Subjects with at least one AE [1, 5]: 2(0.4) n (%)
AESI heart rate and rhythm on Day 1, PT: Atrioventricular block first degree [1, 5]: 0 n (%)
AESI heart rate and rhythm on Day 1, PT: Bradycardia [1, 5]: 0 n (%)
AESI heart rate and rhythm on Day 1, PT: Bundle branch block left [1, 5]: 0 n (%)
AESI heart rate and rhythm on Day 1, PT: Bundle branch block right [1, 5]: 0 n (%)
AESI heart rate and rhythm on Day 1, PT: Defect conduction intraventricular [1, 5]: 0 n (%)
AESI heart rate and rhythm on Day 1, PT: Electrocardiogram QT prolonged [1, 5]: 1(0.2) n (%)
AESI heart rate and rhythm on Day 1, PT: Presyncope [1, 5]: 1(0.2) n (%)
AESI heart rate and rhythm on Day 1, PT: Sinus arrhythmia [1, 5]: 0 n (%)
AESI heart rate and rhythm on Day 1, PT: Sinus bradycardia [1, 5]: 0 n (%)
Treatment-emergent AESI: Infection ([1]; only if serious or severe, ponesimod 20 mg N=565, teriflunomide 14 mg N=566, Safety Set): 5(0.9) n (%)
TEAEs leading to premature discontinuation of study drug: Subjects with at least one AE [1, 6]: 34(6.0) n (%)
TEAEs leading to premature discontinuation, SOC: Blood and lymphatic system disorders [1, 6]: 2(0.4) n (%)
TEAEs leading to premature discontinuation, SOC: Cardiac disorders [1, 6]: 2(0.4) n (%)
TEAEs leading to premature discontinuation, SOC: Eye disorders [1, 6]: 0 n (%)
TEAEs leading to premature discontinuation, SOC: Gastrointestinal disorders [1, 6]: 4(0.7) n (%)
TEAEs leading to premature discontinuation, SOC: General disorders and administration site conditions [1, 6]: 2(0.4) n (%)
TEAEs leading to premature discontinuation, SOC: Hepatobiliary disorders [1, 6]: 2(0.4) n (%)
TEAEs leading to premature discontinuation, SOC: Investigations [1, 6]: 10(1.8) n (%)
TEAEs leading to premature discontinuation, SOC: Musculoskeletal and connective tissue disorders [1, 6]: 1(0.2) n (%)
TEAEs leading to premature discontinuation, SOC: Neoplasms benign, malignant and unspecified (incl cysts and polyps) [1, 6]: 1(0.2) n (%)
TEAEs leading to premature discontinuation, SOC: Nervous system disorders [1, 6]: 4(0.7) n (%)
TEAEs leading to premature discontinuation, SOC: Pregnancy, puerperium and perinatal conditions [1, 6]: 3(0.5) n (%)
TEAEs leading to premature discontinuation, SOC: Psychiatric disorders [1, 6]: 1(0.2) n (%)
TEAEs leading to premature discontinuation, SOC: Reproductive system and breast disorders [1, 6]: 1(0.2) n (%)
TEAEs leading to premature discontinuation, SOC: Respiratory, thoracic and mediastinal disorders [1, 6]: 0 n (%)
TEAEs leading to premature discontinuation, SOC: Skin and subcutaneous tissue disorders [1, 6]: 2(0.4) n (%)
TEAEs leading to premature discontinuation, SOC: Social circumstances [1, 6]: 1(0.2) n (%)
TEAEs leading to premature discontinuation, SOC: Surgical and medical procedures [1, 6]: 1(0.2) n (%)
TEAEs leading to premature discontinuation, SOC: Vascular disorders [1, 6]: 0 n (%)
Treatment-emergent AESI: Effect on heart rate and rhythm (including hypotension) [1, 6]: 24(4.2) n (%)
Treatment-emergent AESI: Hepatobiliary disorders/Liver enzyme abnormality [1, 6]: 82(14.5) n (%)
Treatment-emergent AESI: Herpetic infection [1, 6]: 27(4.8) n (%)
Treatment-emergent AESI: Hypertension [1, 6]: 51(9.0) n (%)
Treatment-emergent AESI: Macular edema [1, 6]: 1(0.2) n (%)
Treatment-emergent AESI: Non-skin malignancy [1, 6]: 1(0.2) n (%)
Treatment-emergent AESI: Pulmonary events [1, 6]: 15(2.7) n (%)
Treatment-emergent AESI: Seizure [1, 6]: 1(0.2) n (%)
Treatment-emergent AESI: Skin malignancy [1, 6]: 1(0.2) n (%)
AESI category hepatobiliary disorders/liver enzyme abnormality [1, 7]: 14.5%
AESI category hypertension [1, 7]: 9.0%
AESI category pulmonary events [1, 7]: 2.7%
Proportion of subjects who experienced at least one SAE [1, 7]: 8.1%
Proportion of subjects who experienced at least one TEAE [1, 7]: 88.2%
TEAE: ALT increased [1, 7]: 9.4%
TEAE: headache [1, 7]: 12.7%
TEAE: nasopharyngitis [1, 7]: 16.8%
TEAE: upper respiratory tract infection [1, 7]: 10.4%
TEAEs leading to premature treatment discontinuation [1, 7]: 6.0%
Subjects with at least one AE [1, 8]: 499(88.2) n (%)
Subjects with at least one AE leading to study drug discontinuation [1, 8]: 34(6.0) n (%)
Subjects with at least one Drug-Related AE [1, 8]: 238(42.0) n (%)
Subjects with at least one Fatal AE [1, 8]: 2(0.4) n (%)
Subjects with at least one Serious AE [1, 8]: 46(8.1) n (%)
Subjects with at least one Severe AE [1, 8]: 26(4.6) n (%)
Subjects discontinued due to AEs or tolerability related reasons [2]: 2.5%
Average change in scaled ventricular volume from baseline (Δ60V), percentage of ICV ([3]; week 60): 0.065%
Average change in scaled ventricular volume from baseline (Δ108V), percentage of ICV ([3]; week 108): 0.124%
Mean heart rate reduction compared to pre-dose (maximum) ([4]; Day 1, 2 hours post dose, 12-lead ECG): −1.7 bpm
Subjects with asymptomatic post-dose HR≤40 bpm ([4]; Day 1, all had pre-treatment HR <55 bpm): none
